Test results taken from patent US10214495B2, “Anti-malarial agents” (MMV MEDICINES FOR MALARIA VENTURE, priority 2015, dated 2019).
Values after ≈ are worked out from the molar mass of the structure shown. Like-named read-outs stand apart in the source and are kept apart here.

What was measured:
[1] = Kinetic solubility by HPLC; format: physicochemical; conditions: kinetic from dmso stock, room temperature
Protocol: Dilutions were prepared to a theoretical concentration of 200 μM (n=2) in phosphate buffered saline (PBS) pH 6.5 (in 2% DMSO), in 0.01 M HCl pH 2 (in 2% DMSO) and in biologically relevant gastrointestinal media, fasted state simulated intestinal fluid, FaSSIF (in 2% DMSO). Calibration curves (11-220 μM) were prepared in DMSO. All dilutions were equilibrated at room temperature and mixed for 2 hours on an orbital shaker. The concentration of the test compounds was determined by HPLC using a Kinetex C18 column (2.1 mm×50 mm, 2.6 μm) at a column temperature of 35° C. An injection volume of 5 μL was used with a mobile phase flow rate of 0.6 mL/min. The mobile phase gradient method was as follows in Table 1: […]
Mobile phase A: 0.1% formic acid in 5% acetonitrile/water (v/v) (pH 3.1)
Mobile phase B: 0.1% formic acid in acetonitrile (pH 3.1)
Compound concentration (x) in the PBS/FASSIF/HC1 samples was calculated from the peak area (y) in the UV chromatogram by extrapolation from a three point calibration curve using the relationship: y=ax+b, where a is the slope and b is the intercept. Solubility was reported in the range <5-220 μM.

[2] = biological target: hPI4KB (Homo sapiens, UniProt Q9UBF8); test: PI4KB lipid kinase ADP-Glo assay; format: biochemical; conditions: ATP 10 μM, PI substrate 50 μM
Protocol: The compounds of the invention were tested on their ability to inhibit the human PI4K kinase. The non-radiometric ADP-Glo™ Assay (Promega, Madison, Wis., USA) was used for measuring the activity of the PI4KB lipid kinase. All kinase assays were performed in 96-well half-area microtiter plates from Greiner Bio-One (Frickenhausen, Germany) in a 25 μl reaction volume. The reaction cocktail was pipetted in 3 steps in the following order:
10 μl of ATP solution (in assay buffer, see below)
5 μl of test sample in 10% DMSO
10 μl of enzyme/substrate mixture
PI4KB assay contained 50 mM HEPES-NaOH, pH 7.5, 1 mM EGTA, 100 mM NaCl, 0.03% CHAPS, 2 mM DTT, ATP, 10 μM, PI4KB kinase, 20 ng/25 μL, PI substrate 50 μM. and3 mM MnCl2.
The reaction cocktails were incubated at 30° C. for 40 minutes. The reaction was stopped with 25 μl ADP-Glo reagent per well. Plates were incubated for 40 minutes at room temperature, followed by addition of 50 μl kinase detection reagent per well and incubation for further 60 minutes at room temperature. Signal was measured with a microplate multilable reader (Victor2, Perkin Elmer, Boston, Mass., USA), in luminescence mode.
All assays were performed with a BeckmanCoulter Biomek 2000/SL robotic system. The median value of the counts (n=8) of each assay plate was defined as “low control”. This value reflects unspecific binding of radioactivity to the plate in the absence of a protein kinase but in the presence of the substrate. […]
As part of the data evaluation the low control value from a particular plate was subtracted from the high control value as well as from all 80 “compound values” of the corresponding plate. The residual activity (in %) for each well of a particular plate was calculated by using the following formula (i): Res. Activity (%)=100×[(cpm of compound−low control)/(high control−low control)] […]
The residual activities for each concentration and the compound IC50 values were calculated using Quattro Workflow V3.1.0 (Quattro Research GmbH, Munich, Germany; www.quattro-research.com). […]

[3] = test system: P. falciparum NF54; test: In vitro P. falciparum growth inhibition, sensitive NF54 strain; format: cell-based; conditions: Plasmodium falciparum, read-out: P. fal. NF54 IC50
Protocol: (§1) The ability of aminopyrazine derivatives according to the invention to kill P. falciparum parasites and/or to inhibit its proliferation is assayed through their ability to inhibit Plasmodium falciparum growth. Compounds were screened against multidrug resistant (K1) and sensitive (NF54) strains of P. falciparum in vitro as described by Vennerstrom et al. 2004, Nature, 430, 900-904.

[4] = Pharmacokinetics in rats (iv and oral); format: in vivo; conditions: rat; for Apparent T1/2 / Plasma Cl / Vd: 5.0 mg/kg iv
Protocol: Compounds of the invention were tested for their pharmacokinetics in rats according to the protocol below. Two different formulations were used to dose the compound of the invention as described in Table 3 below
Compound (1) was prepared for administration immediately prior to the experiment. The dose was prepared according to the average weight of the animals and an assumed volume of 350 μL of vehicle (IV) or 1000 μL of vehicle (oral). Volumes were adjusted io for each animal's individual weight to dose the compound at 5 mg/kg for the IV group (n=3 rats) and 20 mg/kg to the oral group (n=3). Water was supplied ad libitum, but animals were starved for 12 hours prior to dosing. Food was reinstated 5 hours post-dose.
The orally-treated animals were dosed by gavage with the drug introduced as a bolus. The IV-treated animals were anaesthetized and the drug was administered by infusion over a period of 2 minutes. Doses were staggered to allow for accurately timed sampling. Blood was collected at predetermined time-points to evaluate the kinetic profile over 24-48 hours. Blood sampling schedule, measured in hours post-dose, for the two groups of rats after the administration of Compound (1) are presented in Table 4 below:
Whole blood was collected via the tail vein into heparinised microcentrifugation tubes and stored on ice. Within 60 minutes of collection, samples were transferred to a freezer and stored at −80 ° C. until analysis was carried out via LC/MS/MS.
The extraction process was carried out on ice. To extract the drug for analysis, 30 μL of whole blood from each sample as well as from a series of standards and quality controls was transferred to a 96-well plate. A volume of 90 μL of cold methanol containing a suitable internal standard (approx. 60 ng/mL was added to each well and the plate was sealed and vortexed vigorously for 60 seconds to precipitate the proteins and release the compounds into the solvent). These were then centrifuged at 10000 G for 10 minutes to pellet the proteins and cellular debris, and the supernatant was transferred to a duplicate 96-well plate. The plate was transferred to the LC/MS/MS and held at 4° C. until all samples were injected onto the column.
LC/MS/MS analysis was carried out with 5 μL of each sample, using a method which was developed for simultaneous detection of compound (1) and the internal standard using a Phenomenex Hydro-RP column at 20° C. The mobile phase utilized acetonitrile containing 0.1% formic acid (v/v) as the organic component, and 0.1% (v/v) formic acid in water as the aqueous component. The mobile phase ran as a gradient at 400 μL/min, with the organic component increasing from 5% to 95% over 4 minutes before re-equilibration. The assay was calibrated over the range 2-6250 ng/mL (0.0056 μM-17.44 μM).

[5] = test system: P. falciparum K1; test: In vitro P. falciparum growth inhibition, multidrug resistant K1 strain; format: cell-based; conditions: Plasmodium falciparum, read-out: P. fal K1 IC50
Protocol: as §1

[6] = FaSSIF pH 6.5, 2% DMSO, read-out: Kinetic Solubility Fassif pH6.5
[7] = phosphate buffered saline, aqueous buffer, PBS pH 6.5, 2% DMSO, read-out: Kinetic Solubility pH 6.5
[8] = 20.0 mg/kg po vs 5.0 mg/kg iv (Reference 1 column prints iv)

Sequence of hPI4KB (Q9UBF8 whole entry): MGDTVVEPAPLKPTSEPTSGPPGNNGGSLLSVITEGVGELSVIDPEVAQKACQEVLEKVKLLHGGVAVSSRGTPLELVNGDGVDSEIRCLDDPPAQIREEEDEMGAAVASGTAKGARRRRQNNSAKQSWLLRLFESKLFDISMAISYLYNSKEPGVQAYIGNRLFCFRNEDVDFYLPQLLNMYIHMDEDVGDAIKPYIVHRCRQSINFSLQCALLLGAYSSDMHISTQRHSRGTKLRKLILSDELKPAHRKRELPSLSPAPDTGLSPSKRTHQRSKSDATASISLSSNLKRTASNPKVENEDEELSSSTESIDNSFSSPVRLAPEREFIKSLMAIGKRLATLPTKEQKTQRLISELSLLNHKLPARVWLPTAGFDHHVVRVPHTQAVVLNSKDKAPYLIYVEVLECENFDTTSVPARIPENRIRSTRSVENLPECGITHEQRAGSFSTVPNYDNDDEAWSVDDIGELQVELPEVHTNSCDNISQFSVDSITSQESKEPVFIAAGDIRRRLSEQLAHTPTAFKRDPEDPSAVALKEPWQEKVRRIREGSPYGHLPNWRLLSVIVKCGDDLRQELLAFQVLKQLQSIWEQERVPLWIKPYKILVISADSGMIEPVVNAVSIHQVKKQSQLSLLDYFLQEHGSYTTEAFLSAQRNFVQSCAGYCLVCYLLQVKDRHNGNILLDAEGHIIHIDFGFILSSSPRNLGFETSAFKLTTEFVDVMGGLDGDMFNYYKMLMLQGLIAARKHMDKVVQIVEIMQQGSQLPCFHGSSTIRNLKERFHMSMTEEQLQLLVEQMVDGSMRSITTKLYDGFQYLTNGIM

In the case of `Nc1ncc(-c2ccc(C(=O)O)cc2)nc1-c1ccc(C(F)(F)F)cc1` [Compound (1), 4-(5-amino-6-(4-(trifluoromethyl)phenyl)pyrazin-2-yl)benzoic acid], the solubility kinetic at 2 h [1, 6] is reported as 178 µM (≈ 64 µg/mL), the solubility kinetic at 2 h [1, 7] is reported as 180 µM (≈ 64.7 µg/mL) and the IC50 [2] is reported as 7700 nM. For the same compound, the IC50 [3] was 33 nM, the “Apparent T1/2” value [4] was 4.9 h and the “Plasma Cl” value [4] was 10.1 mL/min/kg. The Vd [4] was 4.3 L/kg, the “Oral Bioavailability” value ([4]; […] po vs 5.0 mg/kg iv) was 94% and the IC50 [5] was 32 nM.

Compound `Nc1ncc(-c2ccc(C(=O)O)cc2)nc1-c1ccc(C(F)(F)F)nc1` [Compound (2), 4-(5-amino-6-(6-(trifluoromethyl)pyridin-3-yl)pyrazin-2-yl)benzoic acid] has a solubility kinetic at 2 h [1, 6] of 199 µM (≈ 71.7 µg/mL), a solubility kinetic at 2 h [1, 7] of 187 µM (≈ 67.4 µg/mL) and an IC50 [2] of 23000 nM. The IC50 [3] was 26 nM, the “Apparent T1/2” value [4] was 4.4 h and the “Plasma Cl” value [4] was 16.7 mL/min/kg. The Vd [4] was 6.4 L/kg, the “Oral Bioavailability” value [4, 8] was 38% and the IC50 [5] was 24 nM.

Compound `NC(=O)c1ccc(-c2cnc(N)c(-c3ccc(C(F)(F)F)cc3)n2)cc1` [Reference 1, reference compound] has a solubility kinetic at 2 h [1, 6] of 115 µM (≈ 41.2 µg/mL), a solubility kinetic at 2 h [1, 7] of less than 5 µM and an IC50 [2] of 5000 nM. For the same compound, the IC50 [3] was 13 nM, the “Apparent T1/2” value [4] was 1.0 h and the “Plasma Cl” value [4] was 39 mL/min/kg. The Vd [4] was 3.5 L/kg, the “Oral Bioavailability” value [4, 8] was 25% and the IC50 [5] was 14 nM.
